PubChem BioAssay AID330 (DTP/NCI, 2004)
Where “and” joins values, the source holds several entries; their conditions need not be identical. Equal entries are not always repeated. Inconclusive results and toxic doses are left out.

Test system: P388 leukemia ip, CD2F1 mice, survival T/C
Assay: NCI In Vivo Anticancer Drug Screen. Data for tumor model P388 Leukemia (intraperitoneal) in CD2F1 (CDF1) mice
Conditions: endpoint: median survival time, higher = longer survival
Outline: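 Mice carrying the transplanted tumor received test compound or vehicle. Survival was recorded in each group, and the value is the treated-group measurement divided by that of the vehicle-treated control group.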

[1] = dose: 50.0 mg/kg/injection, schedule: Q01DX005 (ip), vehicle: Klucel (hydroxypropylcellulose) (HPC)
[2] = dose: 100.0 mg/kg/injection, schedule: Q01DX005 (ip), vehicle: Klucel (hydroxypropylcellulose) (HPC)
[3] = dose: 50.0 mg/kg/injection, schedule: Q01DX009 (ip), vehicle: Klucel (hydroxypropylcellulose) (HPC)
[4] = dose: 100.0 mg/kg/injection, schedule: Q01DX009 (ip), vehicle: Klucel (hydroxypropylcellulose) (HPC)
[5] = dose: 6.25 mg/kg/injection, schedule: Q01DX009 (ip), vehicle: saline
[6] = dose: 12.5 mg/kg/injection, schedule: Q01DX009 (ip), vehicle: saline
[7] = dose: 25.0 mg/kg/injection, schedule: Q01DX009 (ip), vehicle: saline
[8] = dose: 50.0 mg/kg/injection, schedule: Q01DX009 (ip), vehicle: saline
[9] = dose: 100.0 mg/kg/injection, schedule: Q01DX009 (ip), vehicle: saline
[10] = dose: 200.0 mg/kg/injection, schedule: Q01DX009 (ip), vehicle: saline

C[Si]1(C)CC[Si](C)(C)OS(=O)(=O)CS(=O)(=O)O1
T/C [1]: 100 % of control
T/C [2]: 105 % of control

Cc1ccc2c(N(C)C)cc(N(C)C)nc2c1C
T/C [3]: 104 % of control
T/C [4]: 105 % of control

C[Si](C)(C)OC=C1CCCCC1
T/C (dose: 50.0 mg/kg/injection, schedule: Q01DX009 (ip), vehicle: olive oil, sesame oil, peanut oil): 113 % of control
T/C (dose: 100.0 mg/kg/injection, schedule: Q01DX009 (ip), vehicle: olive oil, sesame oil, peanut oil): 122 % of control
T/C (dose: 200.0 mg/kg/injection, schedule: Q01DX009 (ip), vehicle: olive oil, sesame oil, peanut oil): 108 % of control

CC1CC2OC(=O)CC2C(O)C2(C)C(OC(C)(C)C)CCC12 (centres undefined)
T/C [1]: 100 % of control
T/C [2]: 90 % of control

CC(C)(C)NC(=O)c1ccc2c(n1)C(=O)N(C(C)(C)C)C2=S
T/C (dose: 100.0 mg/kg/injection, schedule: Q01DX001 (ip), vehicle: saline with Tween-80): 91 % of control
T/C (dose: 200.0 mg/kg/injection, schedule: Q01DX001 (ip), vehicle: saline with Tween-80): 94 % of control
T/C (dose: 400.0 mg/kg/injection, schedule: Q01DX001 (ip), vehicle: saline with Tween-80): 100 % of control

C/C=C1/C[N+]2([O-])CC[C@@]34c5ccc(OC)cc5N(C)[C@H]3C2CC1C4C(=O)OC (some centres undefined)
T/C (dose: 2.5 mg/kg/injection, schedule: Q01DX005 (ip), vehicle: Klucel + Tween-80): 96 % of control
T/C (dose: 5.0 mg/kg/injection, schedule: Q01DX005 (ip), vehicle: Klucel + Tween-80): 97 % of control
T/C (dose: 10.0 mg/kg/injection, schedule: Q01DX005 (ip), vehicle: Klucel + Tween-80): 98 % of control
T/C (dose: 20.0 mg/kg/injection, schedule: Q01DX005 (ip), vehicle: Klucel + Tween-80): 98 % of control

C=C1CCCC2(C)C(OC(C)=O)C=C3C(C)(CCC3(O)C(C)C)CC12O (centres undefined)
T/C (dose: 0.5 mg/kg/injection, schedule: Q01DX009 (ip), vehicle: saline + alcohol): 110 % of control
T/C (dose: 1.0 mg/kg/injection, schedule: Q01DX009 (ip), vehicle: saline + alcohol): 108 % of control
T/C (dose: 2.0 mg/kg/injection, schedule: Q01DX009 (ip), vehicle: saline + alcohol): 102 % of control

CCOC(=O)C(=O)Nc1ccc2cc(OC)ccc2c1C#N
T/C [5]: 94 % of control
T/C [6]: 94 % of control
T/C [7]: 91 % of control
T/C [8]: 99 % of control
T/C [9]: 106 % of control
T/C [10]: 106 % of control

Nc1nc2c(ncn2C2OC(CO)C(O)C2O)c(=O)[nH]1.Nc1nc2c(ncn2C2OC(CO)C(O)C2O)c(=O)[nH]1.[NH2-].[NH2-].[Pt+2] (centres undefined)
T/C [5]: 101 % of control
T/C [6]: 100 % of control and 108 % of control
T/C [7]: 100 % of control and 107 % of control
T/C [8]: 100 % of control and 113 % of control and 107 % of control
T/C (dose: 50.0 mg/kg/injection, schedule: Q01DX009 (ip), vehicle: water): 175 % of control
T/C (dose: 50.0 mg/kg/injection, schedule: Q04DX003 (ip), vehicle: saline): 100 % of control
T/C [9]: 112 % of control and 121 % of control and 116 % of control
T/C (dose: 100.0 mg/kg/injection, schedule: Q01DX009 (ip), vehicle: water): 174 % of control
T/C (dose: 100.0 mg/kg/injection, schedule: Q04DX003 (ip), vehicle: saline): 120 % of control
T/C [10]: 163 % of control and 177 % of control
T/C (dose: 200.0 mg/kg/injection, schedule: Q04DX003 (ip), vehicle: saline): 110 % of control
T/C (dose: 400.0 mg/kg/injection, schedule: Q01DX009 (ip), vehicle: saline): 224 % of control and 227 % of control

Cc1cnc(N)c(S(=O)(=O)O)c1
T/C [7]: 86 % of control
T/C [8]: 88 % of control

N#CC(=C1C=CC(=NO)C=C1)c1ccccc1
T/C (dose: 200.0 mg/kg/injection, schedule: Q01DX009 (ip), vehicle: saline with Tween-80): 115 % of control

C=C(C)C(=O)OC1C(C(C)CCCO)=C(CO)CC2OC(=O)C(=C)C21 (centres undefined)
T/C (dose: 3.12 mg/kg/injection, schedule: Q01DX009 (ip), vehicle: saline + alcohol): 108 % of control
T/C (dose: 6.25 mg/kg/injection, schedule: Q01DX009 (ip), vehicle: saline + alcohol): 112 % of control
T/C (dose: 12.5 mg/kg/injection, schedule: Q01DX009 (ip), vehicle: saline + alcohol): 118 % of control
T/C (dose: 25.0 mg/kg/injection, schedule: Q01DX009 (ip), vehicle: saline + alcohol): 111 % of control

O=c1oc2c(cc1-c1ccccc1)CCc1ccccc1-2
T/C [1]: 102 % of control
T/C [2]: 100 % of control
T/C (dose: 200.0 mg/kg/injection, schedule: Q01DX005 (ip), vehicle: Klucel (hydroxypropylcellulose) (HPC)): 102 % of control

COC1CCC(/C=C(\C#N)C2CCC(OC)CC2)CC1 (centres undefined)
T/C (dose: 25.0 mg/kg/injection, schedule: Q01DX009 (ip), vehicle: Klucel (hydroxypropylcellulose) (HPC)): 107 % of control
T/C [3]: 100 % of control
T/C [4]: 96 % of control
T/C (dose: 200.0 mg/kg/injection, schedule: Q01DX009 (ip), vehicle: Klucel (hydroxypropylcellulose) (HPC)): 92 % of control

Cn1ncc2c(Nc3ccc(F)cc3)c3ccccc3nc21
T/C (dose: 60.0 mg/kg/injection, schedule: Q01DX005 (ip), vehicle: Klucel (hydroxypropylcellulose) (HPC)): 97 % of control
T/C (dose: 120.0 mg/kg/injection, schedule: Q01DX005 (ip), vehicle: Klucel (hydroxypropylcellulose) (HPC)): 95 % of control
T/C (dose: 240.0 mg/kg/injection, schedule: Q01DX005 (ip), vehicle: Klucel (hydroxypropylcellulose) (HPC)): 90 % of control
